Reference: ChEMBL document CHEMBL1201862, “PubChem BioAssay data set” (2004)
Active and inactive are the calls of the source.

Experiments:
[1] = blockers of CRF-binding protein–CRF-R2 complex – cell-based, uHTS hits, 384-well, dose response (AID 651639); format: functional, Homo sapiens; settings: read-out: IC50_Mean
[2] = target: T1, Corticotropin-releasing factor receptor 2/Corticotropin-releasing factor-binding protein (Homo sapiens, UniProt P24387+Q13324); experiment: Dose Response confirmation of uHTS hits for small molecule antagonists of the CRF-binding protein and CRF-R2 receptor complex.; format: functional; settings: read-out: IC50_Mean
T1 sequence (Q13324 whole entry): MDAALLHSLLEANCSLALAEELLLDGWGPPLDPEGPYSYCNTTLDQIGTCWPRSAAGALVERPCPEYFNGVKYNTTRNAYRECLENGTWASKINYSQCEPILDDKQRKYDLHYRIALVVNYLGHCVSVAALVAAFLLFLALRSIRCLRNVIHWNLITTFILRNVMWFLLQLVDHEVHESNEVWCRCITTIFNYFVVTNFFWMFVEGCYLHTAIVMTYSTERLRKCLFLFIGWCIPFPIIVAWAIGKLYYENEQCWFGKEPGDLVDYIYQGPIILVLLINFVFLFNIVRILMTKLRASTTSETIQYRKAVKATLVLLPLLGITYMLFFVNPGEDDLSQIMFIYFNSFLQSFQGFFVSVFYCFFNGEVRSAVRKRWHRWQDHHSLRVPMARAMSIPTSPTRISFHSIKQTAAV
T1 sequence (P24387 whole entry): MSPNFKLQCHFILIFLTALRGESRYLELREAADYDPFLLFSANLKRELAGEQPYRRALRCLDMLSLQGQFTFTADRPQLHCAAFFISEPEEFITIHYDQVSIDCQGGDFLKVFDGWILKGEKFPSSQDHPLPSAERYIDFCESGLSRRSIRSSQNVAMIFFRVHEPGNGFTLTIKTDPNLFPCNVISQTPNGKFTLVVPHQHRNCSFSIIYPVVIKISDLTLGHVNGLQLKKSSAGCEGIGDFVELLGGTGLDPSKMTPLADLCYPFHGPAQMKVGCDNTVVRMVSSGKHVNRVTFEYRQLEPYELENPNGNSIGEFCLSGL

[3] = target: T1, Corticotropin-releasing factor receptor 2/Corticotropin-releasing factor-binding protein; experiment: activators of CRF receptor 2 with binding protein – uHTS hits, confirmation (AID 602473); format: functional; settings: read-out: EC50_Mean
[4] = target: Protein Wnt-3a (Mus musculus, UniProt P27467); experiment: antagonism of Wnt3a pathway luciferase reporter – Wnt-LIGHT cells, luminescence, selectivity assay for Gli-SUFU antagonist project, dose response (AID 651570); format: functional; settings: read-out: IC50_Mean;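 further: Wnt-LIGHT reporter cells stimulated with conditioned medium from Wnt3a-producing cells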
Protein Wnt-3a, sequence (P27467 whole entry): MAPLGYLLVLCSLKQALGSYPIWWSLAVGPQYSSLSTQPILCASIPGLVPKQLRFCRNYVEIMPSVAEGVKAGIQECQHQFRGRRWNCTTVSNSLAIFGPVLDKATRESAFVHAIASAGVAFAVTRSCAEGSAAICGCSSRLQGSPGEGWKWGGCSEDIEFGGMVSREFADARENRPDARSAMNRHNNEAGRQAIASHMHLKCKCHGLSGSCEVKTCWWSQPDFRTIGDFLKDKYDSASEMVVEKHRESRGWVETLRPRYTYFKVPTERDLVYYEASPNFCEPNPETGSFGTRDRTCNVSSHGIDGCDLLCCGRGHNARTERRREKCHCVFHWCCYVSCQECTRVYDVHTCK

[5] = system: INS1; experiment: INS-1E survival protection against cytokine death – cell-based, luminescence, retest, dose response (AID 449756); format: functional; settings: Rattus norvegicus;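 further: cell death triggered by IL-1 beta plus TNF-alpha plus IFN-gamma mixture; protective hits raise ATP signal compared with cytokine alone wells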

| Structure (SMILES) | IC50 [1] | IC50 [2] | EC50 [3] | IC50 [4] | AC50 [5] |
| --- | --- | --- | --- | --- | --- |
| Cc1c(CC(Cl)(Cl)Cl)c2c(n1O)CC(C)(C)CC2=O | > 20 µM (inactive) | 2.98 µM (active) | 15.9 µM (active) |  |  |
| CCOc1ccc(OCc2ccc(C(=O)NN=Cc3ccc[nH]3)cc2)cc1 |  |  |  | 5.48 µM (active) | 0.372 µM (active) |

Continued, in another order:

| IC50 [1] | IC50 [2] | EC50 [3] | IC50 [4] | Structure (SMILES) | AC50 [5] |
| --- | --- | --- | --- | --- | --- |
|  |  |  | 8.95 µM (active) | CCCCCn1c(=N)n(CC(O)COc2ccccc2OC)c2ccccc21 (stereo not given) |  |
|  |  |  | 26.4 µM (inactive) | Clc1ccc(-c2c[n+](-c3ccc(Cl)cc3)c3n2CCCCC3)cc1 |  |
| > 20 µM (inactive) | 33.5 µM (active) | > 53 µM (inactive) |  | Cc1ccc(Cl)cc1N1CCN(C(=O)Cc2c(C(=O)O)[nH]c3ccccc23)CC1 |  |
